Usually IC50 stands for the point on the concentration scale where inhibition reaches its midpoint.

The subject of the first experiment is human monocytic cell line U937. The experiment in a line: Human U937 cellular necroptosis assay (TNFalpha + z-VAD-FMK, Cell Titer-Glo viability). In kind it is cell-based. The note with it: Homo sapiens, U-937, 22 h, U937 cells, 25 ng/mL human TNFalpha + 25 μM z-VAD-FMK, read-out: hU937 Avg IC50. The protocol: The human monocytic cell line U937 (CRL-1593.2) was purchased from ATCC. The cells were routinely maintained in RPMI-1640 Medium (Gibco, Catalog #11875-093) supplemented with 10% heat inactivated fetal bovine serum (Gibco, Catalog #16140-071), 100 units/mL penicillin and 100 μg/mL streptomycin (Gibco, Catalog #15140-122), in a humidified incubator (37° C., 5% CO2). For the assay, cells were resuspended in RPMI-1640 phenol red free Media (Gibco, Catalog #11835-030) supplemented with 10% fetal bovine serum (Sigma, Catalog #F2442), 100 units/mL penicillin and 100 ug/mL streptomycin. Cells were stimulated with 25 ng/mL human TNFalpha (Cell Sciences, Catalog #CSI15659B) and 25 μM z-VAD-FMK (R&D Systems, Catalog #FMK001) followed by seeding 5000 cells per well in a volume of 40 μL to a white, CulturPlate-384 (Perkin Elmer, Catalog #6007680). Stock solutions of the test compounds were prepared in 100% DMSO (Sigma, Catalog #D2650) and serially diluted 1:3 using 100% DMSO. Compounds were additionally diluted 1:40 in assay medium, and 10 μL/well was transferred to the plate. Following the compound addition the plate was incubated at 37° C. and 5% CO2 for 22 h. After 22 h, viability was assessed with the addition of 20 μL of Cell Titer-Glo 2.0 (Promega, Catalog #G9243). The tissue culture plate was shaken on an orbital shaker at 300 RPM for 15 minutes at rt in the dark. Luminescence was measured using a PerkinElmer Envision™ plate reader. IC50 values were calculated using a four-parameter logistic curve fit using Genedata Screener software. Results are shown below in Table 3, where the average value across multiple runs is given.
A general note: In ATP-based viability assays light output follows the ATP content of the culture.
On to `N#Cc1ccc2c(cnn2CC23CC(C(=O)N4N=CCC4c4ccc(F)cc4F)(C2)C3)c1` (stereo not drawn) [Example 240, 1-((3-(5-(2,4-difluorophenyl)-4,5-dihydro-1H-pyrazole-1-carbonyl)bicyclo[1.1.1]pentan-1-yl)methyl)-1H-indazole-5-carbonitrile], for which the IC50 was determined as 13 nM. On to `N#Cc1ccc(OCC23CC(C(=O)N4N=CCC4c4cc(F)cc(F)c4)(C2)C3)nn1` (stereo not drawn) [Example 323, 6-((3-(5-(3,5-difluorophenyl)-4,5-dihydro-1H-pyrazole-1-carbonyl)bicyclo[1.1.1]pentan-1-yl)methoxy)pyridazine-3-carbonitrile], for which the IC50 came out at 153 nM. On the same count and under the same terms, the value for `Cn1cc(-c2ccc(OCC34CC(C(=O)N5N=CCC5c5cc(F)cc(F)c5)(C3)C4)c(F)c2)cn1` (stereo not drawn) [Example 204, (5-(3,5-Difluorophenyl)-4,5-dihydro-1H-pyrazol-1-yl)(3-((2-fluoro-4-(1-methyl-1H-pyrazol-4-yl)phenoxy)methyl)bicyclo[1.1.1]pentan-1-yl)methanone] was 22 nM; that for `Cc1c(F)cc([C@H]2CC=NN2C(=O)C23CC(COc4ccc(C#N)cn4)(C2)C3)cc1F` [Example 266, (R)-6-((3-(5-(3,5-difluoro-4-methylphenyl)-4,5-dihydro-1H-pyrazole-1-carbonyl)-bicyclo[1.1.1]pentan-1-yl)-methoxy)nicotinonitrile] was 1800 nM; that for `C[C@@H](c1ccccc1F)N(C)C(=O)C12CC(COc3cnc(C#N)cn3)(C1)C2` [Example 295, (S)-3-(((5-cyanopyrazin-2-yl)oxy)methyl)-N-(1-(2-fluoro-phenyl)ethyl)-N-methyl-bicyclo[1.1.1]pentane-1-carboxamide] was 5680 nM. As for `Cc1ccc(C2CC=NN2C(=O)C23CC(Cn4ncc5cc(C#N)ccc54)(C2)C3)cn1` (stereo not drawn) [Example 249, 1-((3-(5-(6-methylpyridin-3-yl)-4,5-dihydro-1H-pyrazole-1-carbonyl)bicyclo[1.1.1]-pentan-1-yl)methyl)-1H-indazole-5-carbonitrile], the IC50 stood at 299 nM.

For the compound `Cc1ccc(C2CC=NN2C(=O)C23CC(COc4ccc(C#N)cn4)(C2)C3)cc1F` (stereo not drawn) [Example 272, 6-((3-(5-(3-fluoro-4-methyl-phenyl)-4,5-dihydro-1H-pyrazole-1-carbonyl)bicyclo-[1.1.1]pentan-1-yl)-methoxy)nicotinonitrile], the IC50 amounted to 24 nM. For the compound `Cc1c(F)cc(C2CC=NN2C(=O)C23CC(COc4ccc(C#N)cn4)(C2)C3)cc1F` (stereo not drawn) [Example 264, 6-((3-(5-(3,5-difluoro-4-methylphenyl)-4,5-dihydro-1H-pyrazole-1-carbonyl)-bicyclo[1.1.1]pentan-1-yl)-methoxy)nicotinonitrile], the IC50 is 12 nM. For `Cc1nc(C2CC=NN2C(=O)C23CC(COc4ccc(C#N)cn4)(C2)C3)ccc1F` (stereo not drawn) [Example 315, 6-((3-(5-(5-fluoro-6-methyl-pyridin-2-yl)-4,5-dihydro-1H-pyrazole-1-carbonyl)bicyclo-[1.1.1]pentan-1-yl)methoxy)-nicotinonitrile], the IC50 came out at 666 nM.

Consider `N#Cc1ccc(OCC23CC(C(=O)N4N=CCC4c4cc(F)c(C5CC5)c(F)c4)(C2)C3)nc1` (stereo not drawn) [Example 339, 6-((3-(5-(4-cyclopropyl-3,5-difluorophenyl)-4,5-dihydro-1H-pyrazole-1-carbonyl)-bicyclo[1.1.1]pentan-1-yl)-methoxy)nicotinonitrile], for which the IC50 turned out to be 453 nM.

In the case of `N#Cc1ccc2c(cnn2CC23CC(C(=O)N4C[C@H](O)C[C@H]4c4cccc(F)c4)(C2)C3)c1` (single isomer, unassigned) [Example 263], the IC50 was found to be 9500 nM. `N#Cc1ccc2c(cnn2CC23CC(C(=O)N4N=CCC4c4cccc(F)c4F)(C2)C3)c1` (stereo not drawn) [Example 237, 1-((3-(5-(2,3-difluoropheny1)-4,5-dihydro-1H-pyrazole-1-carbonyl)bicyclo[1.1.1]pentan-1-yl)methyl)-1H-indazole-5-carbonitrile]: the IC50 stood at 7.8 nM.

As for `N#Cc1ccc(OCC23CC(C(=O)N4N=CCC4c4cncc(C#N)c4)(C2)C3)nc1` (stereo not drawn) [Example 286, 5-(1-(3-(((5-cyanopyridin-2-yl)oxy)methyl)bicyclo[1.1.1]-pentane-1-carbonyl)-4,5-dihydro-1H-pyrazol-5-yl)-nicotinonitrile], the IC50 was 218 nM. With `CC1CCN(C(=O)C23CC(COc4cnc(C#N)cn4)(C2)C3)C1c1ccccc1` (stereo not drawn) [Example 302, 5-((3-(3-methyl-2-phenyl-pyrrolidine-1-carbonyl)-bicyclo[1.1.1]pentan-1-yl)-methoxy)pyrazine-2-carbonitrile], the IC50 amounted to 9870 nM. Regarding `N#Cc1cnc(OCC23CC(C(=O)NCc4c(F)cccc4F)(C2)C3)cn1` [Example 294, 3-(((5-cyanopyrazin-2-yl)oxy)-methyl)-N-(2,6-difluoro-benzyl)bicyclo[1.1.1]pentane-1-carboxamide], the IC50 is 5610 nM. For `N#Cc1cnc(OCC23CC(C(=O)NCc4cccc(F)c4F)(C2)C3)cn1` [Example 296, 3-(((5-cyanopyrazin-2-yl)-oxy)methyl)-N-(2,3-difluoro-benzyl)bicyclo[1.1.1]pentane-1-carboxamide], the IC50 was found to be 5850 nM. The same measure, in the same setting: the value for `N#Cc1cnc(OCC23CC(C(=O)N4N=CCC4c4cccc(F)c4F)(C2)C3)cn1` (stereo not drawn) [Example 306, 5-((3-(5-(2,3-difluorophenyl)-4,5-dihydro-1H-pyrazole-1-carbonyl)bicyclo[1.1.1]pentan-1-yl)methoxy)pyrazine-2-carbonitrile] was 6.6 nM; that for `N#Cc1cnc(OCC23CC(C(=O)N4N=CCC4c4ccc(C(F)(F)F)cc4)(C2)C3)cn1` (stereo not drawn) [Example 312, 5-((3-(5-(4-(trifluoromethyl)-phenyl)-4,5-dihydro-1H-pyrazole-1-carbonyl)bicyclo-[1.1.1]pentan-1-yl)methoxy)-pyrazine-2-carbonitrile] was 62 nM. `N#Cc1cnc(OCC23CC(C(=O)N4N=CCC4c4ccc(F)c(CO)c4)(C2)C3)cn1` (stereo not drawn) [Example 207, 5-((3-(5-(4-Fluoro-3-(hydroxymethyl)phenyl)-4,5-dihydro-1H-pyrazole-1-carbonyl)bicyclo[1.1.1]pentan-1-yl)methoxy)pyrazine-2-carbonitrile]: the IC50 was 633 nM. Turning to `N#Cc1ccc2c(cnn2CC23CC(C(=O)N4N=CCC4c4cc(F)c(Br)c(F)c4)(C2)C3)c1` (stereo not drawn) [Example 241, 1-((3-(5-(4-bromo-3,5-difluorophenyl)-4,5-dihydro-1H-pyrazole-1-carbonyl)-bicyclo[1.1.1]pentan-1-yl)-methyl)-1H-indazole-5-carbonitrile], the IC50 came to 18 nM. With `N#Cc1ccc2c(cnn2CC23CC(C(=O)N4N=CCC4c4ccc(C#N)s4)(C2)C3)c1` (stereo not drawn) [Example 251, 1-((3-(5-(5-cyanothiophen-2-yl)-4,5-dihydro-1H-pyrazole-1-carbonyl)bicyclo[1.1.1]-pentan-1-yl)methyl)-1H-indazole-5-carbonitrile], the IC50 was found to be 397 nM. With `Cc1cc2n(CC34CC(C(=O)N5N=CCC5c5cc(F)cc(F)c5)(C3)C4)ccn2n1` (stereo not drawn) [Example 216, (5-(3,5-difluorophenyl)-4,5-dihydro-1H-pyrazol-1-yl)(3-((6-methyl-1H-imidazo[1,2-b]pyrazol-1-yl)methyl)bicyclo-[1.1.1]pentan-1-yl)methanone], the IC50 was 92 nM. For `N#Cc1cnc(OCC23CC(C(=O)N4N=CCC4c4cc(F)cc(F)c4)(C2)C3)c(Cl)c1` (stereo not drawn) [Example 319, 5-chloro-6-((3-(5-(3,5-difluorophenyl)-4,5-dihydro-1H-pyrazole-1-carbonyl)-bicyclo[1.1.1]pentan-1-yl)-methoxy)nicotinonitrile], the IC50 came out at 21 nM. Regarding `N#Cc1ccc(OCC23CC(C(=O)N4CC(F)CC4c4cccc(F)c4)(C2)C3)nc1` (stereo not drawn) [Example 288, 6-((3-(4-fluoro-2-(3-fluoro-phenyl)pyrrolidine-1-carbonyl)bicyclo[1.1.1]pentan-1-yl)methoxy)nicotinonitrile], the IC50 was determined as 276 nM.

With `N#Cc1cnc(OCC23CC(C(=O)N4CC(F)CC4c4cccc(F)c4)(C2)C3)cn1` (stereo not drawn) [Example 283], the IC50 came out at 160 nM. Consider `Cc1ccc(C2CC=NN2C(=O)C23CC(Cn4ncc5cc(C#N)ccc54)(C2)C3)cc1` (stereo not drawn) [Example 309, 1-((3-(5-(p-tolyl)-4,5-dihydro-1H-pyrazole-1-carbonyl)-bicyclo[1.1.1]pentan-1-yl)-methyl)-1H-indazole-5-carbonitrile], for which the IC50 came to 13 nM.

The same experiment, now with this note: U937 cells, 25 ng/mL human TNFalpha + 25 μM z-VAD-FMK, 22 h; read-out: hU937 Avg IC50.
Consider `O=C(N1N=CCC1c1cc(F)cc(F)c1)C12CC(Cn3ncc4ncccc43)(C1)C2` (stereo not drawn) [Example 148, (3-((1H-pyrazolo[4,3-b]-pyridin-1-yl)methyl)bicyclo-[1.1.1]pentan-1-yl)(5-(3,5-difluorophenyl)-4,5-dihydro-1H-pyrazol-1-yl)methanone], for which the IC50 turned out to be 912 nM.

Values taken from US20250214942A1, “INHIBITORS OF RECEPTOR INTERACTING PROTEIN KINASE I FOR THE TREATMENT OF DISEASE” (Board of Regents, The University of Texas System, priority 2019, published 2025).
